Data reported in the supplement of paper PMC4862054.

How the values were obtained:
Settings in all cases: 72 h
BT-474 = test system: BT-474
Procedure, shortened: (§1)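 The plates used were 384-well plates holding compound at 5 concentrations in 10-fold steps across a compound-specific 10,000-fold range, into which breast cancer cell lines were seeded in 20 µl suspension. Following 72 h incubation, CellTox Green fluorescence was read at 485/520 nm, and CellTiter-Glo luminescence was read after 10 min at room temperature. Normalisation on each plate used 0.1 % DMSO and a positive kill control. Dose-response curves gave the EC50, which was censored at the top concentration.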

BT-549 = test system: BT-549
Procedure, shortened: as §1

CAL-120 = test system: CAL-120
Procedure, shortened: as §1

CAL-51 = test system: CAL-51
Procedure, shortened: as §1

DU-4475 = test system: DU-4475
Procedure, shortened: as §1

HCC1143 = test system: HCC1143
Procedure, shortened: as §1

Hs578T = test system: Hs578T
Procedure, shortened: as §1

MCF-10A = test system: MCF-10A
Procedure, shortened: as §1

MDA-MB-231 = test system: MDA-MB-231
Procedure, shortened: as §1

MDA-MB-436 = test system: MDA-MB-436
Procedure, shortened: as §1

MDA-MB-468 = test system: MDA-MB-468
Procedure, shortened: as §1

MFM-223 = test system: MFM-223
Procedure, shortened: as §1

SK-BR-3 = test system: SK-BR-3
Procedure, shortened: as §1

Compound	EC50, CellTiter-Glo (BT-474) [µM]	EC50, CellTiter-Glo (BT-549) [µM]	EC50, CellTiter-Glo (HCC1143) [µM]	EC50, CellTiter-Glo (MDA-MB-231) [µM]	EC50, CellTiter-Glo (MDA-MB-436) [µM]	EC50, CellTiter-Glo (MDA-MB-468) [µM]	EC50, CellTiter-Glo (SK-BR-3) [µM]	EC50, CellTiter-Glo (CAL-120) [µM]	EC50, CellTiter-Glo (CAL-51) [µM]	EC50, CellTiter-Glo (DU-4475) [µM]	EC50, CellTiter-Glo (Hs578T) [µM]	EC50, CellTiter-Glo (MCF-10A) [µM]	EC50, CellTiter-Glo (MFM-223) [µM]
COc1ccc(-c2cc3c(C)nc(N)nc3n([C@H]3CC[C@H](OCCO)CC3)c2=O)cn1	0.162	0.186	0.258	0.189	0.181	0.208	0.0238	0.123	0.105	0.756	0.238	0.122	0.261
CC/C(=C(\c1ccc(O)cc1)c1ccc(OCCN(C)C)cc1)c1ccccc1 [4-hydroxytamoxifen]		1.9		3.3	7.82	3.66	5.72	3.01					8.81
CC(=O)OC[C@H]1O[C@@H]([S-])[C@H](OC(C)=O)[C@@H](OC(C)=O)[C@@H]1OC(C)=O.CCP(CC)CC.[Au+] [Auranofin]	2.39	0.386	0.559	1.01	0.56	0.14	1.73	2.49	0.199	1.87	1.02	1.63	1.46
CCC/C=C/C=C/C(=O)O[C@H]1/C(=C/C(=O)OC)C[C@H]2C[C@H]([C@@H](C)O)OC(=O)C[C@H](O)C[C@@H]3C[C@H](OC(C)=O)C(C)(C)[C@](O)(C[C@@H]4C/C(=C/C(=O)OC)C[C@H](/C=C/C(C)(C)[C@]1(O)O2)O4)O3 [Bryostatin 1]		> 0.1					0.0001		0.00032		0.00141		
CO[C@@H](C(=O)N1Cc2[nH]nc(NC(=O)c3ccc(N4CCN(C)CC4)cc3)c2C1)c1ccccc1 [Danusertib]	0.912	0.882	8.38	2.48	1.09	0.0252		2.86	0.78	1.53	4.06	0.628	0.0865
O=S(=O)(c1cccc2cnccc12)N1CCCNCC1 [Fasudil]		24.4								> 50	> 50		
Cc1c(CN2CCN(C(=O)[C@H](C)O)CC2)sc2c(N3CCOCC3)nc(-c3cnc(N)nc3)nc12 [GDC-0980]	0.375	0.412	0.591	0.58	0.501	0.894	0.13	0.618	0.423	2.48	0.445	0.486	0.362
Cc1cccc(-c2nn3c(c2-c2ccnc4ccc(C(N)=O)cc24)CCC3)n1 [Galunisertib]									> 1				
Nc1cccc2c1CN(C1CCC(=O)NC1=O)C2=O (stereo not given) [Lenalidomide]								> 10					
C[C@]12O[C@H](C[C@]1(O)CO)n1c3ccccc3c3c4c(c5c6ccccc6n2c5c31)CNC4=O [Lestaurtinib]	0.151	0.13	0.0687	0.188	0.787	0.0252	0.215	0.0451	> 1	0.188	0.354	0.215	0.263
O=C1c2c(O)ccc(O)c2C(=O)c2c(NCCNCCO)ccc(NCCNCCO)c21 [Mitoxantrone]			0.314		0.495				0.975	0.988			
CS(=O)(=O)N1CCN(Cc2cc3nc(-c4cccc5[nH]ncc45)nc(N4CCOCC4)c3s2)CC1 [Pictilisib]	1.71	1.41	2.6	2.96	6.05	3.04	0.253	3.15	1.23		1.89	0.397	1.58
C[C@]12C=CC(=O)C=C1CC[C@@H]1[C@@H]2[C@@H](O)C[C@@]2(C)[C@H]1CC[C@]2(O)C(=O)CO [Prednisolone]								0.0991					
Cn1cc(CNCC2CCN(c3ncc(C(=O)NO)cn3)CC2)c2ccccc21 [Quisinostat]	0.0586	0.0818	0.0215	0.0654	0.0509	0.0507	0.0214	0.0742	0.0787	0.024	0.0591	0.0928	0.0707
CC(C)N(CCCNC(=O)Nc1ccc(C(C)(C)C)cc1)C[C@H]1O[C@@H](n2cc(Br)c3c(N)ncnc32)[C@H](O)[C@@H]1O [SGC0946]						2.47							

Second part, led by results:

EC50, CellTiter-Glo (BT-474) [µM]	EC50, CellTiter-Glo (BT-549) [µM]	EC50, CellTiter-Glo (HCC1143) [µM]	EC50, CellTiter-Glo (MDA-MB-231) [µM]	EC50, CellTiter-Glo (MDA-MB-436) [µM]	EC50, CellTiter-Glo (MDA-MB-468) [µM]	EC50, CellTiter-Glo (SK-BR-3) [µM]	Compound	EC50, CellTiter-Glo (CAL-120) [µM]	EC50, CellTiter-Glo (CAL-51) [µM]	EC50, CellTiter-Glo (DU-4475) [µM]	EC50, CellTiter-Glo (Hs578T) [µM]	EC50, CellTiter-Glo (MCF-10A) [µM]	EC50, CellTiter-Glo (MFM-223) [µM]
	0.0536			> 10	0.534		Cc1c(Cn2c(C)nc3c(C(=O)O)cc(N4CCOCC4)cc32)cccc1C(F)(F)F		0.00816				
0.0747	0.406	0.121	0.125		0.0284	0.933	O=C(Nc1c[nH]nc1-c1nc2ccc(CN3CCOCC3)cc2[nH]1)NC1CC1 [AT9283]	0.146	0.00281	0.149	0.157	0.102	0.191
	> 1						COc1cc(CCc2cc(NC(=O)c3ccc(N4CC(C)NC(C)C4)cc3)n[nH]2)cc(OC)c1 (stereo not given) [AZD4547]	0.0688				0.0912	0.00591
0.014	0.0406	0.0295	0.0164		0.0285		Cc1nc(Nc2ncc(C(=O)Nc3c(C)cccc3Cl)s2)cc(N2CCN(CCO)CC2)n1 [Dasatinib]	0.0366	0.0127		0.0887	0.0164	
2.92	1.06	2.25	2.72	4.13	1.84	1.66	Nc1ccccc1NC(=O)c1ccc(CNc2nccc(-c3cccnc3)n2)cc1 [Mocetinostat]	1.6	1.65	1.57	3.43	5.3	4.85
> 10				> 10			COc1nc(N)nc2c1ncn2[C@@H]1O[C@H](CO)[C@@H](O)[C@@H]1O [Nelarabine]						
	4.18						Cc1ccc(Nc2nccc(N(C)c3ccc4c(C)n(C)nc4c3)n2)cc1S(N)(=O)=O [Pazopanib]				> 10		0.645
0.456			0.737	8.47		> 10	O=C(NC[C@H](O)CO)c1ccncc1Nc1ccc(I)cc1F [Pimasertib]	0.356	0.0462	0.0218	5.91	0.0129	1.95
9.16	1.19	0.768	7.05	0.378	0.141	0.574	CC[C@@]1(O)C(=O)OCc2c1cc1n(c2=O)Cc2cc3c(CN(C)C)c(O)ccc3nc2-1 [Topotecan]	4.82	0.785	0.496	5.13	5.6	
